Patent US20110178104A1, “Anti-Heparin Compounds” (POLYMEDIX INC., priority 2010, published 2011)
Starred links: 1 amine or outer side, 2 acyl side, 3 side chain; linkers in the order of their positions; H or OH if unused. Non-standard residues stand in square brackets, D forms with d. Residues, ends and D or L forms follow the SMILES beside them. *: point of attachment. NH(3-CONH2-4-OMe-phenyl) = COc1ccc(N*)cc1C(N)=O; 3Abz(6-OMe) = COc1ccc(N[*:1])cc1C(=O)[*:2]

Experiments:
fondaparinux (FONDAPX) = test: FXa chromogenic assay (absence of plasma), fondaparinux; conditions: fondaparinux 0.02 μg/mL, absence of plasma
[1] = test system: unfractionated heparin (UFH); test: aPTT clotting assay, UFH 0.2 U/mL in plasma (Example 7); format: biochemical; conditions: UFH 0.2 U/mL in plasma
Experimental: aPTT clotting Assay. Unfractionated heparin was mixed with plasma at a final concentration of 0.2 U/mL. […] The ACL Elite Hemostasis analyzer (Beckman Coulter™) was used to add aPTT reagent (HemosIL SynthASil) to supplemented plasma. Clotting was initiated by addition of CaCl2 and time to clot was recorded.

enoxaparin (ENOX) = test: FXa chromogenic assay (absence of plasma), enoxaparin; conditions: enoxaparin 0.1 μg/mL, absence of plasma

Row | FONDAPX (FXa) EC50 (fondaparinux (FONDAPX)) | UFH (aPTT) EC50 [1] | ENOX (FXa) EC50 (enoxaparin (ENOX)) [µg/mL] | SMILES
1 | 6.132 µg/mL | 1.54 µg/mL | 0.2998 | COc1ccc(C(=O)N[C@@H](CCCCN)C(=O)Nc2ccc(OC)c(C(=O)N[C@@H](CCCCN)C(=O)Nc3ccc(OC)c(C(=O)N[C@@H](CCCCN)C(=O)Nc4ccc(OC)c(C(N)=O)c4)c3)c2)cc1NC(=O)[C@@H](N)CCCCN [Compound 99]
2 | 9.853 µg/mL | 2.23 µg/mL | 0.6089 | COc1ccc(NC(=O)[C@H](CCCCN)NC(=O)c2cc(NC(=O)[C@H](CCCCN)NC(=O)c3cc(NC(=O)[C@H](CCCCN)NC(=O)c4cc(NC(=O)[C@@H](N)CCCCN)ccc4OC)ccc3OC)ccc2OC)cc1C(=O)N[C@@H](C)C(=O)O [Compound 109]
3 | 12.700 µg/mL | 2.96 µg/mL | 1.011 | COc1ccc(NC(=O)[C@H](CCCCN)NC(=O)c2cc(NC(=O)[C@H](CCCCN)NC(=O)c3cc(NC(=O)[C@H](CCCCN)NC(=O)c4cc(NC(=O)[C@@H](N)CCCCN)ccc4OC)ccc3OC)ccc2OC)cc1C(=O)NCCCCCC(=O)O [Compound 143]
4 | 1.99 µg/mL | 3.09 µg/mL | 0.32 | COc1ccc(NC(=O)[C@@H](Cc2c[nH]c3ccccc23)NC(=O)c2cc(NC(=O)[C@@H](CCCNC(=N)N)NC(=O)c3cc(NC(=O)[C@@H](CCCNC(=N)N)NC(=O)c4cc(NC(=O)[C@H](N)CCCNC(=N)N)ccc4OC)ccc3OC)ccc2OC)cc1C(N)=O [Compound 84]
5 | 7.045 µg/mL | 2.88 µg/mL | 0.592 | COc1ccc(NC(=O)[C@H](CCCCN)NC(=O)c2cc(NC(=O)[C@H](CCCCN)NC(=O)c3cc(NC(=O)[C@H](CCCCN)NC(=O)c4cc(NC(=O)[C@@H](N)CCCCN)ccc4OC)ccc3OC)ccc2OC)cc1C(=O)N[C@@H](CCCNC(N)=O)C(=O)O [Compound 142]
6 | inactive | 2.33 µg/mL | >15 | COc1ccc(NC(=O)[C@H](CCCCN)NC(=O)c2cc(NC(=O)[C@H](CCCCN)NC(=O)c3cc(NC(=O)[C@H](CCCCN)NC(=O)c4cccc(N(C)C(=O)[C@@H](N)CCCCN)c4)ccc3OC)ccc2OC)cc1C(N)=O [Compound 127]
7 | 3.23 µg/mL | 1.97 µg/mL | 0.26 | COc1ccc(NC(=O)[C@H](CCCCN)NC(=O)c2cc(NC(=O)[C@H](CCCCN)NC(=O)c3cc(NC(=O)[C@H](CCCCN)NC(=O)c4cc(NC(=O)[C@@H](N)CCCNC(=N)N)ccc4OC)ccc3OC)ccc2OC)cc1C(N)=O [Compound 81]
8 | 13.11 µg/mL | 2.03 µg/mL | 0.58 | COc1ccc(NC(=O)[C@H](CCCCN)NC(=O)c2cc(NC(=O)[C@H](CCCCN)NC(=O)c3cc(NC(=O)[C@H](CCCCN)NC(=O)c4cccc(NC(=O)[C@@H](N)CCCCN)c4)ccc3OC)ccc2OC)cc1C(N)=O [Compound 91]
9 | 12.56 µg/mL | 3.00 µg/mL | 0.9758 | COc1ccc(NC(=O)[C@H](CCCCN)NC(=O)c2cc(NC(=O)[C@@H](N)CCCCN)ccc2OC)cc1C(=O)N[C@@H](CCCCN)C(=O)Nc1ccc(OC)c(C(=O)N[C@@H](CCCCN)C(=O)Nc2ccc(OC)c(C(=O)N[C@H](C(=O)O)C(C)C)c2)c1 [Compound 114]
10 | 2.91 µg/mL | 2.38 µg/mL | 0.21 | COc1ccc(NC(=O)[C@@H](C)NC(=O)CCCCNC(=N)N)cc1C(=O)N[C@H](CCCNC(=N)N)C(=O)Nc1ccc(OC)c(C(=O)N[C@H](CCCNC(=N)N)C(=O)Nc2ccc(OC)c(C(=O)N[C@H](CCCNC(=N)N)C(=O)Nc3ccc(OCCNC(=N)N)c(C(N)=O)c3)c2)c1 [Compound 44]
11 | >20 µg/mL | Inactive | 1.66 | COc1cc(OC)c(C(=O)N[C@H]2CC[C@H](NC(=O)c3cc(C(=O)NCCN(C)C)c(OCCNC(=N)N)cc3OCCNC(=N)N)CC2)cc1C(=O)N[C@H]1CC[C@H](NC(=O)c2cc(C(=O)NCCN(C)C)c(OCCNC(=N)N)cc2OCCNC(=N)N)CC1 [Compound 106]
12 | 2.74 µg/mL | 1.58 µg/mL | 0.19 | COc1ccc(NC(=O)[C@@H](CCCNC(=N)N)NC(=O)c2cc(NC(=O)[C@@H](CCCNC(=N)N)NC(=O)c3cccc(NC(=O)[C@@H](CCCNC(=N)N)NC(=O)c4cc(NC(=O)[C@H](N)CCCNC(=N)N)ccc4OC)c3)ccc2OC)cc1C(N)=O [Compound 69]
13 | 11.15 µg/mL | 2.33 µg/mL | 0.50 | COc1ccc(NC(=O)[C@@H](CCCCN)NC(=O)c2cc(NC(=O)[C@@H](CCCCN)NC(=O)c3cc(NC(=O)[C@@H](CCCCN)NC(=O)c4cc(NC(=O)[C@H](N)CCCCN)ccc4OC)ccc3OC)ccc2OC)cc1C(N)=O [Compound 17]
14 | 40.16 µg/mL | 5.35 µg/mL | 2.90 | N=C(N)NCCC[C@@H](N)C(=O)Nc1ccc(OCCNC(=N)N)c(C(=O)N[C@H](CCCNC(=N)N)C(=O)Nc2ccc(OCCNC(=N)N)c(C(=O)N[C@H](CCCNC(=N)N)C(=O)Nc3ccc(OCCNC(=N)N)c(C(N)=O)c3)c2)c1 [Compound 9]
15 | 6.94 µg/mL | 7.39 µg/mL | 0.418 | COc1ccc(NC(=O)[C@H](CCCCN)NC(=O)c2cc(NC(=O)[C@H](CCCCN)NC(=O)c3cc(NC(=O)[C@H](CCCCN)NC(=O)c4cc(NC(=O)[C@@H](N)CCCCN)cc(C(F)(F)F)c4)ccc3OC)ccc2OC)cc1C(N)=O [Compound 124]
16 | 8.495 µg/mL | 4.17 µg/mL | 1.651 | CNc1cccc(C(=O)N[C@@H](CCCCN)C(=O)Nc2ccc(OC)c(C(=O)N[C@@H](CCCCN)C(=O)Nc3ccc(OC)c(C(=O)N[C@@H](CCCCN)C(=O)Nc4ccc(OC)c(C(N)=O)c4)c3)c2)c1 [Compound 128]
17 | >20 µg/mL | Inactive | 2.07 | COc1cc(OC)c(C(=O)N[C@H]2CC[C@@H](NC(=O)c3cc(C(=O)NCCN(C)C)c(OCCNC(=N)N)cc3OCCNC(=N)N)CC2)cc1C(=O)N[C@H]1CC[C@@H](NC(=O)c2cc(C(=O)NCCN(C)C)c(OCCNC(=N)N)cc2OCCNC(=N)N)CC1 [Compound 105]
18 | 44.99 µg/mL | 4.80 µg/mL | 3.71 | COc1ccc(NC(=O)[C@@H](CCCNC(=N)N)NC(=O)c2cc(NC(=O)[C@H](C)NC(=O)[C@@H](CCCNC(=N)N)NC(=O)c3cc(NC(=O)[C@@H](CCCNC(=N)N)NC(=O)c4cc(NC(=O)[C@H](N)CCCNC(=N)N)ccc4OC)ccc3OC)ccc2OC)cc1C(N)=O [Compound 75] (H-[dR][3Abz(6-OMe)][dR][3Abz(6-OMe)][dR]A[3Abz(6-OMe)][dR]-{NH(3-CONH2-4-OMe-phenyl)})

Row | SMILES | FONDAPX (FXa) EC50 (fondaparinux (FONDAPX)) | UFH (aPTT) EC50 [1] | ENOX (FXa) EC50 (enoxaparin (ENOX)) [µg/mL]
19 | COc1ccc(NC(=O)[C@H](CCCCN)NC(=O)c2cc(NC(=O)[C@H](CCCCN)NC(=O)c3cc(NC(=O)[C@H](CCCCN)NC(=O)c4ccc(NC(=O)[C@@H](N)CCCCN)cc4)ccc3OC)ccc2OC)cc1C(N)=O [Compound 126] | >20 µg/mL | 9.07 µg/mL | 0.7187
